Test results as given in patent US6737383B1, “Herbicidal oxadiazolidines” (priority 1999, dated 2004).

Legend:
[1] = test system: bermuda-grass; assay: Test D bermudagrass; type: in vivo, Cynodon dactylon; conditions: Preemergence, 0 to 100 scale
Procedure, shortened: (§1)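 Each weed species is planted in its own pot or compartment; preemergence doses go on the sandy loam surface within a day. The formulation is a surfactant-containing, non-phytotoxic solvent blend. Ratings come from visual comparison with untreated controls 14 to 21 days later, where 100 means complete control.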

[2] = test system: large crabgrass; assay: Test D large crabgrass; type: in vivo, Digitaria sanguinalis; conditions: Preemergence, 0 to 100 scale
Procedure, shortened: as §1

[3] = test system: Spanishneedles; assay: Test D Spanishneedles; type: in vivo, Bidens bipinnata; conditions: Preemergence, 0 to 100 scale
Procedure, shortened: as §1

[4] = test system: Green foxtail; assay: Test D green foxtail; type: in vivo; conditions: Preemergence, 0 to 100 scale
Procedure, shortened: as §1

[5] = test system: common groundsel; assay: Test D common groundsel; type: in vivo, Senecio vulgaris; conditions: Preemergence, 0 to 100 scale
Procedure, shortened: as §1

[6] = test system: goosegrass; assay: Test D goosegrass; type: in vivo, Eleusine indica; conditions: Preemergence, 0 to 100 scale
Procedure, shortened: as §1

[7] = test system: sandbur; assay: Test D sandbur; type: in vivo, Cenchrus echinatus; conditions: Preemergence, 0 to 100 scale
Procedure, shortened: as §1

[8] = test system: Green foxtail; assay: Test D green foxtail; type: in vivo
Procedure, shortened: as §1

[9] = test system: purple nutsedge; assay: Test D purple nutsedge; type: in vivo, Cyperus rotundus; conditions: Preemergence, 0 to 100 scale
Procedure, shortened: as §1

[10] = test system: surinam grass; assay: Test D surinam grass; type: in vivo, Brachiaria decumbens; conditions: Preemergence, 0 to 100 scale
Procedure, shortened: as §1

[11] = test system: Johnson grass; assay: Test D Johnson grass; type: in vivo, Sorghum halepense; conditions: Preemergence, 0 to 100 scale
Procedure, shortened: as §1

[12] = test system: Alexandergrass; assay: Test D Alexandergrass; type: in vivo, Brachiaria plantaginea; conditions: Preemergence, 0 to 100 scale
Procedure, shortened: as §1

[13] = test system: dallisgrass; assay: Test D dallisgrass; type: in vivo, Paspalum dilatatum; conditions: Preemergence, 0 to 100 scale
Procedure, shortened: as §1

[14] = test system: common pursiane; assay: Test D common purslane; type: in vivo, Portulaca oleracea; conditions: Preemergence, 0 to 100 scale
Procedure, shortened: as §1

[15] = test system: common ragweed; assay: Test D common ragweed; type: in vivo, Ambrosia elatior; conditions: Preemergence, 0 to 100 scale
Procedure, shortened: as §1

[16] = test system: itchgrass; assay: Test D itchgrass; type: in vivo, Rottboellia exaltata; conditions: Preemergence, 0 to 100 scale
Procedure, shortened: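 Scoring used a 0–100 visual injury scale, with 0 meaning no effect and 100 complete control, assessed 14–21 days after application alongside untreated pots. Preemergence treatments went onto sandy loam surfaces of separately potted seeds within a day of sowing.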

[17] = test system: pitted morningglory; assay: Test D pitted morningglory; type: in vivo, Ipomoea lacunosa; conditions: Preemergence, 0 to 100 scale
Procedure, shortened: as §1

[18] = Rate 16 g/ha, 0 no injury, 100 complete control
[19] = Rate 32 g/ha, 0 no injury, 100 complete control
[20] = Rate 64 g/ha, 0 no injury, 100 complete control
[21] = Rate 125 g/ha, 0 no injury, 100 complete control
[22] = Rate 64 g/ha, Preemergence; 0 to 100 scale, 0 no injury, 100 complete control
[23] = Rate 125 g/ha, Preemergence; 0 to 100 scale, 0 no injury, 100 complete control

## CC(C)N(C(=O)n1oc(=O)n(N(C)C)c1=O)c1ccc(F)cc1 [Compound 170]
[1]; [18]
  Plant response rating, Bermudagrass: 80
[1]; [19]
  Plant response rating, Bermudagrass: 90
[1]; [20]
  Plant response rating, Bermudagrass: 100
[1]; [21]
  Plant response rating, Bermudagrass: 100
[1]; Rate 250 g/ha
  Plant response rating, Bermudagrass: 100
[1]; Rate 500 g/ha
  Plant response rating, Bermudagrass: 100
[2]; [18]
  Plant response rating, Large crabgrass: 30
[2]; [19]
  Plant response rating, Large crabgrass: 85
[2]; [20]
  Plant response rating, Large crabgrass: 100
[2]; [21]
  Plant response rating, Large crabgrass: 100
[2]; Rate 250 g/ha
  Plant response rating, Large crabgrass: 100
[2]; Rate 500 g/ha
  Plant response rating, Large crabgrass: 100
[3]; [18]
  Plant response rating, Spanishneedles: 0
[3]; [19]
  Plant response rating, Spanishneedles: 0
[3]; [20]
  Spanishneedles plant response rating: 0
[3]; [21]
  Spanishneedles plant response rating: 0
[3]; Rate 250 g/ha
  Plant response rating, Spanishneedles: 40
[3]; Rate 500 g/ha
  Plant response rating, Spanishneedles: 85
[4]; Rate 250 g/ha
  Plant response rating, Green foxtail: 100
[4]; Rate 500 g/ha
  Plant response rating, Green foxtail: 100
[5]; [18]
  Plant response rating, Com. groundsel: 0
[5]; [19]
  Plant response rating, Com. groundsel: 0
[5]; [20]
  Plant response rating, Com. groundsel: 0
[5]; [21]
  Plant response rating, Com. groundsel: 45
[5]; Rate 250 g/ha
  Plant response rating, Com. groundsel: 45
[5]; Rate 500 g/ha
  Plant response rating, Com. groundsel: 100
[6]; [18]
  Plant response rating, Goosegrass: 50
[6]; [19]
  Plant response rating, Goosegrass: 65
[6]; [20]
  Plant response rating, Goosegrass: 75
[6]; [21]
  Plant response rating, Goosegrass: 75
[6]; Rate 250 g/ha
  Plant response rating, Goosegrass: 98
[6]; Rate 500 g/ha
  Plant response rating, Goosegrass: 100
[7]; [18]
  Plant response rating, Sandbur: 0
[7]; [19]
  Plant response rating, Sandbur: 0
[7]; [20]
  Sandbur plant response rating: 40
[7]; [21]
  Sandbur plant response rating: 40
[7]; Rate 250 g/ha
  Plant response rating, Sandbur: 40
[7]; Rate 500 g/ha
  Plant response rating, Sandbur: 98
[8]; Preemergence; Rate 16 g/ha; 0 to 100 scale, 0 no injury, 100 complete control
  Plant response rating, Green foxtail: 65
[8]; Preemergence; Rate 32 g/ha; 0 to 100 scale, 0 no injury, 100 complete control
  Plant response rating, Green foxtail: 75
[8]; Rate 16 g/ha; Preemergence; 0 to 100 scale, 0 no injury, 100 complete control
  Plant response rating, Green foxtail: 65
[8]; Rate 32 g/ha; Preemergence; 0 to 100 scale, 0 no injury, 100 complete control
  Plant response rating, Green foxtail: 100
[8]; [22]
  Green foxtail plant response rating: 100
  Plant response rating, Green foxtail: 100
[8]; [23]
  Green foxtail plant response rating: 100
  Plant response rating, Green foxtail: 100
[8]; Rate 250 g/ha; Preemergence; 0 to 100 scale
  Plant response rating, Green foxtail: 100
[8]; Rate 500 g/ha, Preemergence; 0 to 100 scale
  Plant response rating, Green foxtail: 100
[9]; [18]
  Plant response rating, Purple nutsedge: 0
[9]; [19]
  Plant response rating, Purple nutsedge: 0
[9]; [20]
  Purple nutsedge plant response rating: 0
[9]; [21]
  Purple nutsedge plant response rating: 0
[9]; Rate 250 g/ha
  Plant response rating, Purple nutsedge: 65
[9]; Rate 500 g/ha
  Plant response rating, Purple nutsedge: 65
[10]; [18]
  Plant response rating, Surinam grass: 0
[10]; [19]
  Plant response rating, Surinam grass: 0
[10]; [20]
  Surinam grass plant response rating: 30
[10]; [21]
  Surinam grass plant response rating: 75
[10]; Rate 250 g/ha
  Plant response rating, Surinam grass: 100
[10]; Rate 500 g/ha
  Plant response rating, Surinam grass: 100
[11]; [18]
  Plant response rating, Johnsongrass: 0
[11]; [19]
  Plant response rating, Johnsongrass: 0
[11]; [20]
  Plant response rating, Johnsongrass: 0
[11]; [21]
  Plant response rating, Johnsongrass: 75
[11]; Rate 250 g/ha
  Plant response rating, Johnsongrass: 100
[11]; Rate 500 g/ha
  Plant response rating, Johnsongrass: 95
[12]; [18]
  Plant response rating, Alexandergrass: 20
[12]; [19]
  Plant response rating, Alexandergrass: 20
[12]; [20]
  Plant response rating, Alexandergrass: 30
[12]; [21]
  Plant response rating, Alexandergrass: 85
[12]; Rate 250 g/ha
  Plant response rating, Alexandergrass: 98
[12]; Rate 500 g/ha
  Plant response rating, Alexandergrass: 100
[13]; [18]
  Plant response rating, Dallisgrass: 0
[13]; [19]
  Plant response rating, Dallisgrass: 0
[13]; [20]
  Plant response rating, Dallisgrass: 85
[13]; [21]
  Plant response rating, Dallisgrass: 85
[13]; Rate 250 g/ha
  Plant response rating, Dallisgrass: 100
[13]; Rate 500 g/ha
  Plant response rating, Dallisgrass: 100
[14]; [18]
  Plant response rating, C. purslane: 0
[14]; [19]
  Plant response rating, C. purslane: 0
[14]; [20]
  Plant response rating, C. purslane: 0
[14]; [21]
  Plant response rating, C. purslane: 0
[14]; Rate 250 g/ha
  Plant response rating, C. purslane: 0
[14]; Rate 500 g/ha
  Plant response rating, C. purslane: 10
[15]; [18]
  Plant response rating, C. ragweed: 0
[15]; [19]
  Plant response rating, C. ragweed: 0
[15]; [20]
  Plant response rating, C. ragweed: 0
[15]; [21]
  Plant response rating, C. ragweed: 0
[15]; Rate 250 g/ha
  Plant response rating, C. ragweed: 40
[15]; Rate 500 g/ha
  Plant response rating, C. ragweed: 45
[16]; [18]
  Plant response rating, Itchgrass: 0
[16]; [19]
  Plant response rating, Itchgrass: 0
[16]; [20]
  Plant response rating, Itchgrass: 0
[16]; [21]
  Plant response rating, Itchgrass: 30
[16]; Rate 250 g/ha
  Plant response rating, Itchgrass: 45
[16]; Rate 500 g/ha
  Plant response rating, Itchgrass: 50
[17]; [18]
  Plant response rating, P. morninglory: 20
[17]; [19]
  Plant response rating, P. morninglory: 20
[17]; [20]
  Plant response rating, P. morninglory: 20
[17]; [21]
  Plant response rating, P. morninglory: 40
[17]; Rate 250 g/ha
  Plant response rating, P. morninglory: 65
[17]; Rate 500 g/ha
  Plant response rating, P. morninglory: 85
